Results as given in patent US20240076609A1, “COMPOSITIONS AND METHODS FOR CULTURING AND EXPANDING CELLS” (LIFE TECHNOLOGIES CORPORATION, priority 2017, published 2024).
Where “and” joins values, the source holds several entries; their conditions need not be identical. Equal values may be shown once. Entries after “also recorded” stand apart in the source; their conditions may differ.

Key:
Pan CD3+ T cells = assay: T cell expansion with 2-DG titration (population doublings); format: cell-based, human
Method: 2-Deoxy-D-Glucose Preparation: 2-Deoxy-D-Glucose (2-DG, 164.16 g/mol) was manufactured by (Acros Organics, cat. no. 111980-250). The 2-DG solution was prepared in sterile filtered water at a stock concentration of 100 mM, then aliquoted in Eppendorf tubes at a final volume of 1 mL in each tube. Cell Culture: T cell isolation: De-identified, frozen apheresis bags from normal donors were obtained from HemaCare Corp. Van Nuys, CA 91406. T cells were negatively isolated from PBMCs with the DYNABEADS® […] Human T Cells kit (Thermo Fisher Scientific, Cat. No. 11344D). T cell activation and expansion: T cells (seeding density 1×10^6 vc/mL) were activated with DYNABEADS® Human T-Expander CD3/CD28 (Thermo Fisher Scientific, Cat. No. 11141D) at a ratio of 3 beads per T cell and cultured in serum-free medium, animal origin free medium. T cells were counted on days 5, 7, 10, and 12 on a Vi-CELL XR analyzer (Beckman Coulter, Indianapolis IN) and fed with or without 2-DG (0.25 mM, 0.5 mM, 1 mM, 2 mM, and 4 mM) and 5% human AB serum to a density of 5×10^5 vc/mL on days 3, 5, and 7 and 1×10^6 vc/mL on day 10. 2-Deoxy-D-Glucose Preparation: 2-Deoxy-D-Glucose (2-DG, 164.16 g/mol) is manufactured by Acros Organics (part of Thermo Fisher Scientific). The 2-DG solution was prepared in sterile filtered water at a stock concentration of 100 mM, then aliquoted in Eppendorf tubes at a final volume of 1 mL in each tube. Cell Culture: T cell isolation: De-identified, frozen apheresis bags from normal donors were obtained from HemaCare. T cells were negatively isolated from PBMCs with the DYNABEADS® […] Human T Cells kit (Thermo Fisher Scientific, Cat. No. 11344D). T cell activation and expansion: T cells (seeding density 1×10^6 vc/mL) were activated with DYNABEADS® Human T-Expander CD3/CD28 (Thermo Fisher Scientific, Cat. No. 11141D) at a ratio of 3 beads per T cell and cultured in serum-free medium, animal origin free medium. T cells were counted on days 5, 7, 10, and 12 on a Vi-CELL XR analyzer (Beckman Coulter, Indianapolis IN) and fed with or without 2-DG (0.25 mM, 0.5 mM, 1 mM, 2 mM, and 4 mM) and 5% human AB serum to a density of 5×10^5 vc/mL on days 3, 5, and 7 and 1×10^6 vc/mL on day 10.

Non-naïve T cells = assay: Expansion of non-naïve T cells with 2-DG; format: cell-based, human; conditions: 4 mM 2-DG
Method: T cell activation and expansion: T cells (seeding density 1×10^6 vc/mL) were activated with DYNABEADS® Human T-Expander CD3/CD28 (Thermo Fisher Scientific, Cat. No. 11141D) at a ratio of 3 beads per T cell and cultured in serum-free medium, animal origin free medium. T cells were counted on days 5, 7, 10, and 12 on a Vi-CELL XR analyzer (Beckman Coulter, Indianapolis IN) and fed with or without 2-DG (0.25 mM, 0.5 mM, 1 mM, 2 mM, and 4 mM) and 5% human AB serum to a density of 5×10^5 vc/mL on days 3, 5, and 7 and 1×10^6 vc/mL on day 10. For some studies, CD8+ and CD4+ T cells were isolated from PBMCs by negative selection using Untouched Human CD8+ and CD4+ T Cells Kits. Naïve and non-naïve T cells were isolated from enriched T cells by positive selection using CD45RA nanobeads (Miltenyi). […]

O=CC[C@@H](O)[C@H](O)[C@H](O)CO [2-DG, 2-Deoxy-D-Glucose]
Cultured T Cell Population Doublings (Pan CD3+ T cells; 0.25 mM 2-DG, day 5, Table 12): 1.79 | Cultured T Cell Population Doublings (Pan CD3+ T cells; 0.25 mM 2-DG, day 5, single values, Table 31): 1.44 and 1.64 and 1.57 | Cultured T Cell Population Doublings (Pan CD3+ T cells; 0.25 mM 2-DG, day 7, Table 12): 3.67 | Cultured T Cell Population Doublings (Pan CD3+ T cells; 0.25 mM 2-DG, day 7, single values, Table 31): 3.40 and 3.54 and 3.35 | Cultured T Cell Population Doublings (Pan CD3+ T cells; 0.25 mM 2-DG, day 10, Table 12): 6.20 | Cultured T Cell Population Doublings (Pan CD3+ T cells; 0.25 mM 2-DG, day 10, single values, Table 31): 4.85 and 5.70 and 5.81 | Cultured T Cell Population Doublings (Pan CD3+ T cells; 0.25 mM 2-DG, day 12, Table 12): 6.49 | Cultured T Cell Population Doublings (Pan CD3+ T cells; 0.25 mM 2-DG, day 12, single values, Table 31): 5.72 and 6.57 and 6.47 | Cultured T Cell Population Doublings (Pan CD3+ T cells; 0.5 mM 2-DG, day 5, Table 12): 1.81 | Cultured T Cell Population Doublings (Pan CD3+ T cells; 0.5 mM 2-DG, day 5, single values, Table 31): 1.40 and 1.69 and 1.04 | Cultured T Cell Population Doublings (Pan CD3+ T cells; 0.5 mM 2-DG, day 7, Table 12): 4.17 | Cultured T Cell Population Doublings (Pan CD3+ T cells; 0.5 mM 2-DG, day 7, single values, Table 31): 3.95 and 3.32 and 3.33 | Cultured T Cell Population Doublings (Pan CD3+ T cells; 0.5 mM 2-DG, day 10, Table 12): 6.07 | Cultured T Cell Population Doublings (Pan CD3+ T cells; 0.5 mM 2-DG, day 10, single values, Table 31): 5.06 and 6.28 and 6.75 | Cultured T Cell Population Doublings (Pan CD3+ T cells; 0.5 mM 2-DG, day 12, Table 12): 6.16 | Cultured T Cell Population Doublings (Pan CD3+ T cells; 0.5 mM 2-DG, day 12, single values, Table 31): 6.13 and 6.22 and 6.48 | Cultured T Cell Population Doublings (Pan CD3+ T cells; 1 mM 2-DG, day 5, Table 12): 1.15 | Cultured T Cell Population Doublings (Pan CD3+ T cells; 1 mM 2-DG, day 5, Table 25): 2.08 | Cultured T Cell Population Doublings (Pan CD3+ T cells; 1 mM 2-DG, day 7, Table 12): 3.40 | Cultured T Cell Population Doublings (Pan CD3+ T cells; 1 mM 2-DG, day 7, Table 25): 3.87 | Cultured T Cell Population Doublings (Pan CD3+ T cells; 1 mM 2-DG, day 10, Table 12): 4.93 | Cultured T Cell Population Doublings (Pan CD3+ T cells; 1 mM 2-DG, day 10, Table 25): 7.19 | Cultured T Cell Population Doublings (Pan CD3+ T cells; 1 mM 2-DG, day 12, Table 12): 4.60 | Cultured T Cell Population Doublings (Pan CD3+ T cells; 1 mM 2-DG, day 12, Table 25): 7.00 | Cultured T Cell Population Doublings (Pan CD3+ T cells; 2 mM 2-DG, day 5, Table 12): 0.15 | Cultured T Cell Population Doublings (Pan CD3+ T cells; 2 mM 2-DG, day 5, Table 25): 1.87 | Cultured T Cell Population Doublings (Pan CD3+ T cells; 2 mM 2-DG, day 7, Table 12): 1.33 | Cultured T Cell Population Doublings (Pan CD3+ T cells; 2 mM 2-DG, day 7, Table 25): 3.53 | Cultured T Cell Population Doublings (Pan CD3+ T cells; 2 mM 2-DG, day 10, Table 12): 3.29 | Cultured T Cell Population Doublings (Pan CD3+ T cells; 2 mM 2-DG, day 10, Table 25): 7.10 | Cultured T Cell Population Doublings (Pan CD3+ T cells; 2 mM 2-DG, day 12, Table 12): 2.44 | Cultured T Cell Population Doublings (Pan CD3+ T cells; 2 mM 2-DG, day 12, Table 25): 6.90 | population doublings (Pan CD3+ T cells; 4 mM 2-DG): about 6 population doublings | Cultured T Cell Population Doublings (Pan CD3+ T cells; 4 mM 2-DG, day 5, Table 12): 2.24 | Cultured T Cell Population Doublings (Pan CD3+ T cells; 4 mM 2-DG, day 5, Table 25): 1.92 | Cultured T Cell Population Doublings (Pan CD3+ T cells; 4 mM 2-DG, day 7, Table 12): 3.84 | Cultured T Cell Population Doublings (Pan CD3+ T cells; 4 mM 2-DG, day 7, Table 25): 3.95 | Cultured T Cell Population Doublings (Pan CD3+ T cells; 4 mM 2-DG, day 10, Table 12): 6.78 | Cultured T Cell Population Doublings (Pan CD3+ T cells; 4 mM 2-DG, day 10, Table 25): 7.50 | Cultured T Cell Population Doublings (Pan CD3+ T cells; 4 mM 2-DG, day 12, Table 12): 6.63 | Cultured T Cell Population Doublings (Pan CD3+ T cells; 4 mM 2-DG, day 12, Table 25): 7.35 | expansion compared to control (Pan CD3+ T cells; 2-DG at 0.25 mM and 0.5 mM): expansion comparable to control | effect of 2-DG supplementation on T cell growth (Pan CD3+ T cells; concentrations tested 0.25-4 mM): does not affect T cell growth even with lower concentrations | effect of 2-DG on growth of non-naïve T cells (Non-naïve T cells; 12 days): did not affect growth of either cell type; also recorded: modest effect | Cultured Non-Naïve T Cell Population Doublings (Non-naïve T cells; day 5): −0.24 | Cultured Non-Naïve T Cell Population Doublings (Non-naïve T cells; day 7): 1.25 | Cultured Non-Naïve T Cell Population Doublings (Non-naïve T cells; day 10): 3.37 | Cultured Non-Naïve T Cell Population Doublings (Non-naïve T cells; day 12): 4.64
